Where “and” joins values, the source holds several entries; their conditions need not be identical. Equal entries are not always repeated.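 Exposure lasted 48 hours, with cells grown in 96-well plates and compounds tested at five concentrations. At the GI50, growth is halved. TGI: total growth inhibition.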 *1 amine or outer side, *2 acyl side, *3 side chain or, on linkers, in order; H or OH if unused. Where a SMILES comes first, the peptide text is derived from it. Bridges are numbered along the chain shown (N, C = ends). Roman numbers before positions name the chains, in order. [ ]: non-standard residue; d: D form. Actinocin(9to1) = Cc1c2oc3c(C)ccc(C(=O)[*:1])c3nc-2c(C(=O)[*:2])c(N)c1=O; NMeT = CN[CH](C(=O)O)[CH](C)O; Sar = CNCC(=O)O
Key:
Assay in all cases: growth of human tumour cells (NCI), 48 h
COLO 205 colon = tested on: COLO 205 colon
PC-3 prostate = tested on: PC-3 prostate
SK-MEL-5 melanoma = tested on: SK-MEL-5 melanoma
K-562 leukemia = tested on: K-562 leukemia
SK-MEL-28 melanoma = tested on: SK-MEL-28 melanoma
TK-10 renal = tested on: TK-10 renal
SR leukemia = tested on: SR leukemia
CAKI-1 renal = tested on: CAKI-1 renal
HL-60(TB) leukemia = tested on: HL-60(TB) leukemia
A549 NSCLC = tested on: A549 NSCLC

Row | SMILES | GI50 (COLO 205 colon) | TGI (COLO 205 colon) | GI50 (PC-3 prostate) | TGI (PC-3 prostate) | GI50 (SK-MEL-5 melanoma) | TGI (SK-MEL-5 melanoma) | GI50 (K-562 leukemia) | TGI (K-562 leukemia) | GI50 (SK-MEL-28 melanoma) | TGI (SK-MEL-28 melanoma) | TGI (TK-10 renal) | GI50 (SR leukemia) | TGI (SR leukemia) | TGI (CAKI-1 renal) | GI50 (HL-60(TB) leukemia) | TGI (HL-60(TB) leukemia) | GI50 (A549 NSCLC) | TGI (A549 NSCLC) | GI50 (TK-10 renal) | GI50 (CAKI-1 renal)
1 | C/C(=N\Nc1cc(C)c2ccccc2n1)c1ccccn1 | < 0.0188 µM | 1.98 µM | 0.0821 µM | 4.5 µM | 0.13 µM | 1.28 µM | 0.0865 µM | 1.5 µM | 0.362 µM | 1.96 µM | 2.76 µM | < 0.0293 µM | 2.39 µM | 0.544 µM | < 0.0365 µM | 0.155 µM | 0.0714 µM | 1.17 µM | – | –
2 | C=C1C(=O)O[C@H]2[C@H]1CC/C(COC(=O)C(=O)c1cn(C)c3ccc(Cl)cc13)=C\CC[C@@]1(C)O[C@@H]21 | 1.96 µM | 4.2 µM | 1.41 µM | 3.32 µM | 1.55 µM | 2.91 µM | 1.65 µM | > 100 µM | 1.49 µM | 3.72 µM | 2.98 µM | 0.3 µM | 50 µM | 4.54 µM | 1.25 µM | 4.09 µM | 2.2 µM | 4.82 µM | 1.42 µM | 1.71 µM
3 | CS(=O)(=O)CCNCc1ccc(-c2ccc3ncnc(Nc4ccc(OCc5ccccc5)c(Br)c4)c3c2)o1 | 4.69 µM | 9.75 µM | 9.28 µM | > 25 µM | 3.44 µM | 6.71 µM | 7.72 µM | > 20.6 µM | 4.5 µM | 9.08 µM | > 22 µM | 8.49 µM | > 23.3 µM | > 25 µM | 6.81 µM | 15.9 µM | 8.81 µM | > 25 µM | 2.02 µM | 2.43 µM
4 | COc1ccc(-c2cc(-c3ccc(Cl)cc3)nc(SCCCC(=O)NO)n2)cc1 | 1.69 µM | 4.4 µM | 0.874 µM | 3.61 µM | 1.59 µM | 3.31 µM | 1.2 µM | > 100 µM | 1.69 µM | 5.47 µM | 5.78 µM | 0.358 µM | – | 1.29 µM | 1.65 µM | > 23 µM | 1.57 µM | 7.95 µM | 0.499 µM | 0.284 µM
5 | COC(=O)c1cc2c3ccccc3n3c(=O)c4cc5ccccc5nc4c(n1)c23 | > 100 µM | > 100 µM | > 100 µM | > 100 µM | > 100 µM | > 100 µM | > 100 µM | > 100 µM | > 100 µM | > 100 µM | > 100 µM | > 100 µM | > 100 µM | > 100 µM | > 100 µM | > 100 µM | > 100 µM | > 100 µM | > 100 µM | > 100 µM
6 | CCCN(CCC)c1ccc(/C=C/c2ccc3cc(OCC)ccc3n2)cc1 | > 100 µM | > 100 µM | 56.3 µM | > 100 µM | 23.6 µM | > 100 µM | 9.37 µM | > 100 µM | > 100 µM | > 100 µM | > 100 µM | 13.8 µM | > 100 µM | > 100 µM | 20.3 µM | > 100 µM | 75.4 µM | > 100 µM | > 100 µM | 73.3 µM
7 | COc1cc(N2CCC(N3CCN(C)CC3)CC2)ccc1Nc1ncnc(Nc2ccccc2S(=O)(=O)C(C)C)n1 | 3.21 µM | 11.1 µM | 5.33 µM | > 51.4 µM | 4.62 µM | 18.1 µM | 10.6 µM | 73.7 µM | 10.9 µM | 34.9 µM | 22 µM | 0.104 µM | 18.7 µM | 13 µM | 11.7 µM | 32.2 µM | 3.17 µM | 14.9 µM | 5.21 µM | 3.32 µM
8 | Cc1ccc(NC2=C(Cl)C(=O)N(Cc3ccc(Cl)cc3)C2=O)cc1O | 10.7 µM | 41 µM | 5.5 µM | 35.6 µM | 12.6 µM | 28 µM | 61.8 µM | > 100 µM | 14.8 µM | 44.4 µM | 32.4 µM | 71.4 µM | > 100 µM | 18 µM | 54.8 µM | > 100 µM | 10.5 µM | 29.2 µM | 15.2 µM | 2.79 µM
9 | CC(=Nc1ccccc1)C1=C(O)C(Cc2ccc(O)cc2)NC1=O (stereo not given) | 0.076 µM | 0.28 µM | 0.0538 µM | > 100 µM | 0.0512 µM | 2.37 µM | 0.044 µM | > 50.7 µM | 0.0594 µM | > 100 µM | > 100 µM | 0.0283 µM | – | > 100 µM | 0.0376 µM | 0.176 µM | 0.126 µM | > 100 µM | 0.252 µM | 0.0635 µM
10 | COc1ccc(-c2oc(=O)ccc2-c2cc(OC)c(OC)c(OC)c2)cc1O | 6.78 µM | 36 µM | 0.963 µM | > 100 µM | 0.514 µM | 12.7 µM | 0.439 µM | > 100 µM | 8.85 µM | > 100 µM | > 84.1 µM | 0.267 µM | > 23.8 µM | > 80.8 µM | 0.407 µM | 2.03 µM | 3.41 µM | > 100 µM | 14.1 µM | 3.08 µM
11 | N#CC1=C(N)Oc2c(ccc3ccccc23)C1c1ccccc1 (stereo not given) | 0.19 µM | 1.23 µM | 0.0454 µM | 16.8 µM | 0.0346 µM | 0.451 µM | 0.0322 µM | 22.6 µM | 0.944 µM | 20.5 µM | 27 µM | 0.0336 µM | 22.4 µM | 12.6 µM | 0.0295 µM | 0.274 µM | 0.0845 µM | 18.3 µM | 7.57 µM | 0.0283 µM
12 | CCOC(=O)NC1C2CC(=O)OC(O2)C1OC(C)=O (stereo not given) | – | > 100 µM | > 100 µM | > 100 µM | – | > 100 µM | – | > 100 µM | – | > 100 µM | > 100 µM | – | > 100 µM | > 100 µM | > 100 µM | > 100 µM | – | > 100 µM | – | –
13 | C=C1C(=O)OC2C1CCC(C)C1C=CC(=O)C12C (stereo not given) | – | 5.74 µM | – | 17.3 µM | – | 12 µM | – | 11.3 µM | – | 4.93 µM | 10.6 µM | – | 9.73 µM | 6.75 µM | – | 4.85 µM | – | 41.9 µM | – | –
14 | COC(=O)CC[C@]1(C)O[C@H]2[C@H]([C@@H](C)CCCC(C)=O)OC(=O)[C@@H]2C[C@H]1O | > 100 µM | > 100 µM | > 100 µM | > 100 µM | > 100 µM | > 100 µM | > 100 µM | > 100 µM | > 100 µM | > 100 µM | > 100 µM | > 100 µM | > 100 µM | > 100 µM | > 100 µM | > 100 µM | > 100 µM | > 100 µM | 68.7 µM | 32 µM
15 | Cc1c2oc3c(C)ccc(C(=O)NC4C(=O)NC(C(C)C)C(=O)N5CCCC5C(=O)N(C)CC(=O)N(C)C(C(C)O)C(=O)OC4C)c3nc-2c(C(=O)NC2C(=O)NC(C(C)C)C(=O)N3CCCC3C(=O)N(C)CC(=O)N(C)C(C(C)O)C(=O)OC2C)c(N)c1=O (stereo not given) (I: TVP[Sar][NMeT] / II: TVP[Sar][NMeT]; ester I:1-I:C, II:1-II:C; linker I:N-II:N via Actinocin(9to1); configuration not given here) | 2.22 µM and 0.801 µM | > 36.8 µM | 2.99 µM and > 1 µM | > 100 µM | 0.473 µM and > 1 µM | 2.9 µM and > 1 µM | – | > 36.5 µM | – | 4.96 µM and > 1 µM | > 28.8 µM | 1.1 µM and 0.187 µM | 5.35 µM and > 1 µM | 13.1 µM and > 1 µM | 3 µM and > 1 µM | 28.1 µM and > 1 µM | 2.86 µM and > 1 µM | > 100 µM | 4.2 µM and > 1 µM | 3.64 µM and > 1 µM
16 | NC[C@H]1Nc2ccccc2[C@@H](O)C1O (stereo not given in full) | – | > 100 µM | – | > 100 µM | – | > 100 µM | – | > 100 µM | – | > 100 µM | > 100 µM | – | > 100 µM | > 100 µM | – | > 100 µM | – | > 100 µM | – | –
17 | C=C1C(C2(C)C(OC(C)=O)CC(=O)OC(C)(COC(C)=O)C2CC(=O)OC)C(OC=O)C(OC(=O)C(O)C(C)CC)C2(C)C(c3ccoc3)CC(=O)C12O (stereo not given) | – | > 100 µM | – | > 100 µM | – | > 100 µM | – | > 31.6 µM | – | > 100 µM | > 100 µM | – | > 100 µM | 11.7 µM | – | 0.414 µM | – | > 100 µM | – | –
18 | O=c1cc(N2CCN(CCCCCOc3cc(O)c4c(=O)cc(-c5ccccc5)oc4c3)CC2)c2ccccc2o1 | 70.5 µM | > 100 µM | 43.1 µM | > 100 µM | 28 µM | > 100 µM | 15.4 µM | > 100 µM | 61.8 µM | > 100 µM | > 100 µM | 42.9 µM | > 100 µM | > 100 µM | 17.5 µM | > 100 µM | > 100 µM | > 100 µM | > 100 µM | > 100 µM
19 | C[C@]12CC[C@@H]3c4cc(-c5ccc(F)cc5)c(O)cc4CC[C@H]3[C@@H]1CC[C@@H]2O | 4.83 µM | 23.9 µM | 4.63 µM | 21.8 µM | 9.41 µM | 21.2 µM | 3.06 µM | 18.3 µM | 14.2 µM | 28 µM | 21.7 µM | 4.75 µM | 24.5 µM | 21.5 µM | 8.17 µM | 28.5 µM | 6.17 µM | 22.9 µM | – | 6.47 µM

From PubChem BioAssay (NCI)
